Measured values from patent US20220089663A1, “PROTEINS AND FLUOROPHORE-CONTAINING COMPOUNDS SELECTIVE FOR NaV1.7” (MEMORIAL SLOAN KETTERING CANCER CENTER, priority 2019, published 2022).

Columns and labels:
[1] = target: T1, hNav1.7 (Homo sapiens, UniProt Q15858); assay: automated whole-cell patch clamp (QPatch 16X), HEK293-hNav1.7; type: cell-based
T1 construct: host or cells: HEK293

[2] = acute in vivo toxicity after intravenous injection; parameters: species or system mouse
Procedure: Acute in vivo toxicity. All animal experiments were performed in accordance with protocols approved by the Institutional Animal Care and Use Committee of MSK and followed the National Institute of Health guidelines for animal welfare. Six athymic nude mice 6-8 weeks old were purchased from Envigo RMS, Inc. An intravenous (IV) catheter was placed in tail vein of each mouse and they were anesthetized using Isoflurane (Novaplus, Telangana-India). Anesthesia was maintained using 1.0 to 1.5 L/min of Isoflurane and 2 L/min of oxygen. Three animals were injected with 68 μM, 7 nmol Hsp1a-FL in 100 μL of PBS, and the other three with […], of PBS. Animals were monitored using a rodent surgical monitor (Indus instruments, Houston, Tex.) before, during, and up to 16 minutes after injection. Numeric data points represent averaged values of 5±1 seconds duration. Data was collected before injection, 15 seconds after injection, 5 minutes after injection and 15 minutes after injection. Mouse body core temperature was measured by placing a rectal probe and electronically regulated via a surgical platform. The high-resolution electrocardiogram (EKG) was measured by placing non-invasive electrodes on the 4 paws and electrical contact was assured using a conducting gel (Electrode cream, Indus instruments, Houston, Tex.). Heart rate was automatically calculated from the R-R peaks derived from the EKG signal. Peripheral capillary oxygen saturation (SpO2) was non-invasively measured by placing a clip sensor on the animal's left thigh.
Statistical Analysis. Data were statistically analyzed by generalized estimating equations followed by LSD post hoc test when appropriate using SPSS 23.0. During animal toxicity studies, data points representing loss of signal were excluded from the analysis. Loss of signal was defined by a brief contact loss between the monitoring equipment and the mice (creating a “false” zero or −1 result). Loss of signal was corrected by placing the electrode in close contact to the mice. Average and standard deviations were calculated for each mouse.
Unless otherwise stated, data points represent mean values and error bars represent the standard deviation of biological replicates (mean±SEM). All p-values were calculated using a Student's unpaired t-test. Statistical significance was considered for p-values<0.05 and as follows: ns=not significant, *p<0.05, **p<0.01, ***p<0.001. Mann-Whitney tests were used for analysis of the unpaired samples (e.g. vital signs in mice injected with Hsp1a and mice from the control group) and the Wilcoxon test was used for analysis of paired samples (e.g. vital signs from same mouse before and after injection). Statistical significance was determined with alpha=0.05. Analysis and figures were prepared in GraphPad Prism 8.

[3] = in vitro; details: human, serum
[4] = 10 μM, human serum, 37° C.
[5] = system: mouse sciatic nerves; assay: epifluorescence imaging (IVIS Spectrum) of sciatic nerves and organs 30 min after injection; type: in vivo; details: 30 minutes after systemic injection
Procedure: Animal Model. Female athymic nude mice (4-8 week-old, athymic-Nude (outbred) (Stock #: 088; Envigo, USA) were allowed to acclimatize at the Memorial Sloan Kettering Cancer Center (MSK) vivarium for 1 week with ad libitum food and water prior to the experimental procedure. For imaging experiments, animals were sacrificed 30 min post-tail vein injection of Hs1a-FL, Hs1a/Hs1a-FL, Hsp1a-FL, Hsp1a/Hsp1a-FL, or PBS. All animal experiments were performed in accordance with institutional guidelines and approved by the IACUC of MSK, following NIH guidelines for animal welfare.
Epifluorescence Imaging. Animals were intravenously injected with Hsp1a-FL (7 nmol, 68 μM of Hsp1a-FL in 100 μL of PBS, n=9), or Hs1a-FL (4 nmol, 45 μM of Hs1a-FL in 100 μL of PBS, n=3). To assess the specificity of the Hsp1a-FL or Hs1a-FL accumulation, animals were injected with a combination of Hsp1a and Hsp1a-FL (Hsp1a-FL, 68 μM, 7 nmol and Hsp1a 204 μM, 21 nmol in 100 μL PBS, n=9), Hs1a and Hs1a-FL (Hs1a-FL, 45 μM, 4 nmol and Hs1a, 120 μM, 12 nmol in 100 μL PBS, n=3) or PBS (n=9). Animals were sacrificed 30 min post-injection and epifluorescence images obtained. Epifluorescence images of the right sciatic nerve (RSN) and the left sciatic nerve (LSN) were obtained in situ. Epifluorescence of the biodistribution of the peptides in excited RSN, LSN, muscle, heart, kidney, liver, and brain were acquired with IVIS Spectrum (PerkinElmer) using a predefined GFP filterset (e.g., excitation=465/30 nm, emission=520-580 nm) based on the particular fluorophore employed in the compounds. Autofluorescence was removed through spectral unmixing. Semiquantitative analysis of the Hsp1a-FL or Hs1a-FL signal was conducted by measuring the average radiant efficiency (in units of unit [p/s/cm^2/sr]/[μW/cm^2]) in regions of interest (ROIs) that were placed on all resected organs under white light guidance.

T1 sequence (Q15858 whole entry): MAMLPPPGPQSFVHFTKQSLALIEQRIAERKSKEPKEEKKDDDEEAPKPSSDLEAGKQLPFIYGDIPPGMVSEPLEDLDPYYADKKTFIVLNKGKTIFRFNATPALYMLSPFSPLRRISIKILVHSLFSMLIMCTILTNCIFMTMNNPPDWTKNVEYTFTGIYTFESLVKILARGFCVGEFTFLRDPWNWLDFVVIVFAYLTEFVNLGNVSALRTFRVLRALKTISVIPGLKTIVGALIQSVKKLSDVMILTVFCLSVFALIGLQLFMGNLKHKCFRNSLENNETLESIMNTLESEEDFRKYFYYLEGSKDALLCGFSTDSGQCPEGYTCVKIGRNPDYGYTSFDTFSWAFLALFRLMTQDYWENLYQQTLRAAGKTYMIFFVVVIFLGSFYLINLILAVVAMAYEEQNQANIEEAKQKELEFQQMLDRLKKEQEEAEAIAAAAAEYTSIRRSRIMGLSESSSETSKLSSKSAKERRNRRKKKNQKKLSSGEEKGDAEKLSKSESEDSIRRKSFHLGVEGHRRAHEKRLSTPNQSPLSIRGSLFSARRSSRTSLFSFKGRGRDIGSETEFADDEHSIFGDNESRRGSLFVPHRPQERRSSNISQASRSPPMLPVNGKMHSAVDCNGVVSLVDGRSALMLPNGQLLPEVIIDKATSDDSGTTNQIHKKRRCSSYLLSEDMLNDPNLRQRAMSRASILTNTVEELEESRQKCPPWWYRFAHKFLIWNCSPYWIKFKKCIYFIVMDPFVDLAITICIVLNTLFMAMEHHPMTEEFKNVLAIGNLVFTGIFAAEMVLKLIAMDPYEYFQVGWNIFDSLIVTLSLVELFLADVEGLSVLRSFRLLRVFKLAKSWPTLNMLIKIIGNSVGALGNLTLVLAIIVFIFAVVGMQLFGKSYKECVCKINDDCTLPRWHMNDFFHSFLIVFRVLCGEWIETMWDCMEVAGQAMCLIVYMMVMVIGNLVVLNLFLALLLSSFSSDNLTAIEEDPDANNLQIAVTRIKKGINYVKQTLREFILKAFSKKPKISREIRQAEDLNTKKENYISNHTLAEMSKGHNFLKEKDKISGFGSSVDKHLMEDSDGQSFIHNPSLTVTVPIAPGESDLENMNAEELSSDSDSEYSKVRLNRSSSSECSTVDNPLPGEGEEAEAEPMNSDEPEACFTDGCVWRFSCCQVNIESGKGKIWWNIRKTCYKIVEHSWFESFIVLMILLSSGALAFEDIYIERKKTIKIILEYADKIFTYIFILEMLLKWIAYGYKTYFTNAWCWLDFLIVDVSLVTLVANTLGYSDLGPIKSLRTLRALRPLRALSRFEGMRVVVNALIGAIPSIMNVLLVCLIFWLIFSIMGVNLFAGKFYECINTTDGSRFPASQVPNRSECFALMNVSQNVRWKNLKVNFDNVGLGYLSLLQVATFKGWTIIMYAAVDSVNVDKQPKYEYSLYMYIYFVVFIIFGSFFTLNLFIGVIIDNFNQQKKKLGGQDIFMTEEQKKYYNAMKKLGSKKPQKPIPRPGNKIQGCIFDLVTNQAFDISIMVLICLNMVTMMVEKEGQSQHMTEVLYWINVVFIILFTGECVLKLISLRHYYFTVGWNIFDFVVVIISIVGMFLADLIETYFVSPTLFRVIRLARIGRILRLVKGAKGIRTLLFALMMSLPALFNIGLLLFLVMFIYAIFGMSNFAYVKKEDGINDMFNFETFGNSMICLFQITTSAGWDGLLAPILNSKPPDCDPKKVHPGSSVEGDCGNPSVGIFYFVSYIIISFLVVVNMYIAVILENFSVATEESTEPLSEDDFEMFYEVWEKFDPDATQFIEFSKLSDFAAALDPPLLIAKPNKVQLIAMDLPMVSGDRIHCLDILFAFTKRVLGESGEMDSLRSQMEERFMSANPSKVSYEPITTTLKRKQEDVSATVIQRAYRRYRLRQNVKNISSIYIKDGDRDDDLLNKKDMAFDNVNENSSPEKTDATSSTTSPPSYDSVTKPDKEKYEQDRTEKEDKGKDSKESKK
T1 sequence (Q07699 19-218, further chain): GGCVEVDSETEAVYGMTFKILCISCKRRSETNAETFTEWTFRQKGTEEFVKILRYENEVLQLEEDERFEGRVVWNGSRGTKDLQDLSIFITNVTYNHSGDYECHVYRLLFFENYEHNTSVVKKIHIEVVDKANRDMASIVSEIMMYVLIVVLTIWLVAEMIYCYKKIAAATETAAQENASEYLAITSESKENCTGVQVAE

CC[C@H](C)[C@H](NC(=O)[C@H](CCCCN)NC(=O)[C@@H]1CSSC[C@@H]2NC(=O)[C@@H]3CCCN3C(=O)[C@H](CCCNC(=N)N)NC(=O)[C@H](CCC(=O)O)NC(=O)[C@H](CO)NC(=O)[C@H](CC(=O)O)NC(=O)[C@@H]3CSSC[C@H](NC(=O)[C@H](C(C)C)NC(=O)[C@H](CC(C)C)NC(=O)CNC(=O)[C@H](CCC(=O)O)NC(=O)[C@H](CSSC[C@H](NC(=O)[C@@H](N)Cc4ccc(O)cc4)C(=O)N[C@@H](CCC(N)=O)C(=O)N[C@@H](CCCCN)C(=O)N[C@@H](Cc4ccccc4)C(=O)N[C@@H](CC(C)C)C(=O)N[C@@H](Cc4c[nH]c5ccccc45)C(=O)N[C@@H]([C@@H](C)O)C(=O)N3)NC2=O)C(=O)N[C@@H](CCCNC(=N)N)C(=O)N[C@@H](CC(C)C)C(=O)N[C@@H](Cc2c[nH]c3ccccc23)C(=O)N1)C(=O)N[C@@H](CC(N)=O)C(N)=O [Hsp1a]
pIC50 difference to sHsp1a on hNav1.7 [1]: no significant pIC50s difference | IC50 ([1]; HEK293 cells stably expressing human channel, read-out: IC50 Nav1.7): 13 nM | average core temperature ([2]; 15 seconds post injection): 34.5 °C | average core temperature ([2]; 5 min post-injection): 34.6 °C | average core temperature ([2]; 15 minutes post-injection): 34.6 °C | EKG pattern ([2]; before and up to 16 minutes after injection): No changes were observed

CSCC[C@@H]1NC(=O)[C@H](CC(C)C)NC(=O)[C@H](CCCNC(=N)N)NC(=O)[C@H](CO)NC(=O)[C@@H]2CSSC[C@@H]3NC(=O)[C@H](CO)NC(=O)CNC(=O)[C@H]([C@@H](C)O)NC(=O)[C@H](CSSC[C@H](N)C(=O)N[C@@H](CCCCN)C(=O)NCC(=O)N[C@@H](CCCCN)C(=O)NCC(=O)N[C@@H](C)C(=O)N[C@@H](CCCCN)C(=O)N2)NC(=O)[C@H](CSSC[C@@H](C(N)=O)NC(=O)[C@H](CCCCN)NC(=O)CNC(=O)[C@H](CO)NC(=O)[C@H](CCCNC(=N)N)NC3=O)NC(=O)[C@H](CC(=O)O)NC(=O)[C@H](Cc2ccc(O)cc2)NC1=O [MVIIA]
remaining at 24 h [3]: 50%

CC[C@H](C)[C@@H]1NC(=O)[C@H](CCCNC(=N)N)NC(=O)[C@H](CC(=O)O)NC(=O)[C@H](CCSC)NC(=O)[C@H](CCCNC(=N)N)NC(=O)CNC(=O)CNC(=O)[C@H](Cc2ccccc2)NC(=O)[C@@H](NC(=O)[C@H](CO)NC(=O)[C@H](CO)NC(=O)[C@H](CCCNC(=N)N)NC(=O)[C@H](CCCNC(=N)N)NC(=O)[C@H](CC(C)C)NC(=O)[C@@H](N)CO)CSSC[C@@H](C(=O)N[C@@H](CC(N)=O)C(=O)N[C@@H](CO)C(=O)N[C@@H](Cc2ccccc2)C(=O)N[C@@H](CCCNC(=N)N)C(=O)N[C@@H](Cc2ccc(O)cc2)C(=O)O)NC(=O)CNC(=O)[C@H](CC(C)C)NC(=O)CNC(=O)[C@H](CO)NC(=O)[C@H](CCC(N)=O)NC(=O)[C@H](C)NC(=O)CNC1=O [hANP, reference compound]
time of incubation in which degraded [4]: 1 to 2 h

YCQK(BODIPY665)FLWTCDSERPCCEGLVCRLWCKIN-NH2 (N-terminal YCQK(BODIPY665) extension; C-terminal amide) [Hsp1a-BODIPY665]
biodistribution in various tissues [5]: limited to the peripheral nervous system

YCQK(CY7.5)FLWTCDSERPCCEGLVCRLWCKIN-NH2 (N-terminal YCQK(CY7.5) extension; C-terminal amide) [Hsp1a-CY7.5]
biodistribution in various tissues [5]: limited to the peripheral nervous system

YCQK(DY-684)FLWTCDSERPCCEGLVCRLWCKIN-NH2 (N-terminal YCQK(DY-684) extension; C-terminal amide) [Hsp1a-DY-684]
biodistribution in various tissues [5]: limited to the peripheral nervous system

YCQK(IR-800)FLWTCDSERPCCEGLVCRLWCKIN-NH2 (N-terminal YCQK(IR-800) extension; C-terminal amide) [Hsp1a-IR800]
biodistribution in various tissues [5]: limited to the peripheral nervous system

YCQK(Jane1ia669)FLWTCDSERPCCEGLVCRLWCKIN-NH2 (N-terminal YCQK(Janelia669) extension; C-terminal amide) [Hsp1a-Janelia669]
biodistribution in various tissues [5]: limited to the peripheral nervous system
